Experimental data: US20080200442A1, “Compositions and Methods for Treating, Reducing, Ameliorating, or Preventing Infections of the Ear or Upper Respiratory Tract” (priority 2007, published 2008)
≈ marks a conversion by molar mass, not a printed value. Like-named read-outs stand apart in the source and are kept apart here.

Experiments:
Format in all cases: cell-based
[1] = test system: Peptostreptococcus micros (GIFU 7824); test: In vitro anti-bacterial activity (MIC90), anaerobic reference bacteria; details: Parvimonas micra
[2] = test system: Pseudomonas aeruginosa; test: In vitro anti-bacterial activity (MIC90), ophthalmologic clinical bacteria isolates; details: Gram-negative
[3] = test system: Penicillin-resistant Streptococcus pneumoniae; test: as above
[4] = test system: Salmonella typhimurium (TD); test: In vitro anti-bacterial activity (MIC90), Gram-negative reference strains
Description: Anti-bacterial activity of the compound having Formula III was tested against several Gram-negative reference bacteria strains and compared to the anti-bacterial activity of three commercially available antibiotics (nadifloxacin, ofloxacin, and sparfloxacin).

[5] = test system: Propionibacterium acnes (ATCC 6919); test: In vitro anti-bacterial activity (MIC90), anaerobic reference bacteria; details: Cutibacterium acnes, ATCC6919
[6] = test system: Veillonella parvula (GAI 5602); test: as above
[7] = test system: Staphylococcus aureus (No. 415); test: In vitro anti-bacterial activity (MIC90), methicillin-resistant Staphylococcus aureus isolates; details: methicillin-resistant Staphylococcus aureus (No. 415)
Description: (§1) Anti-bacterial activity of the compound having Formula III was tested against several Gram-negative reference bacteria strains and compared to the anti-bacterial activity of three commercially available antibiotics (nadifloxacin, ofloxacin, and sparfloxacin). The results are shown in Table 2 as MIC90 values (minimum concentration of the active compound required to inhibit ninety percent of the growth of a specified pathogen, in μg/ml).
(§2) Anti-bacterial activity of the compound having Formula III was tested against some methicillin-resistant Staphylococcus aureus bacteria strains and compared to the anti-bacterial activity of three commercially available antibiotics (nadifloxacin, ofloxacin, and sparfloxacin).

[8] = test system: Staphylococcus aureus (No. 421); test: as above; details: methicillin-resistant Staphylococcus aureus (No. 421)
Description: as §1, §2

[9] = test system: Staphylococcus aureus (ATCC 33593); test: as above; details: ATCC33593; methicillin-resistant Staphylococcus aureus (ATCC 33593)
Description: as §1, §2

[10] = test system: Staphylococcus aureus (ATCC 33592); test: as above; details: ATCC33592; methicillin-resistant Staphylococcus aureus (ATCC 33592)
Description: as §1, §2

[11] = test system: Staphylococcus aureus (No. 419); test: as above; details: methicillin-resistant Staphylococcus aureus (No. 419)
Description: as §1, §2

[12] = test system: Staphylococcus aureus (ATCC 33591); test: as above; details: ATCC33591; methicillin-resistant Staphylococcus aureus (ATCC 33591)
Description: as §1, §2

[13] = test system: Staphylococcus aureus (No. 395); test: as above; details: methicillin-resistant Staphylococcus aureus (No. 395)
Description: as §1, §2

[14] = test system: Staphylococcus aureus (No. 420); test: as above; details: methicillin-resistant Staphylococcus aureus (No. 420)
Description: as §1, §2

[15] = test system: Streptococcus pneumoniae; test: In vitro anti-bacterial activity (MIC90), ophthalmologic clinical bacteria isolates; details: Gram-positive
[16] = test system: Propionibacterium acnes (GAI 5419); test: In vitro anti-bacterial activity (MIC90), anaerobic reference bacteria; details: Cutibacterium acnes
[17] = test system: Coagulase-negative Staphylococcus; test: In vitro anti-bacterial activity (MIC90), ophthalmologic clinical bacteria isolates; details: Gram-positive
[18] = test system: Propionibacterium acnes; test: as above; details: Cutibacterium acnes, Gram-positive
[19] = test system: Propionibacterium acnes (ATCC 11828); test: In vitro anti-bacterial activity (MIC90), anaerobic reference bacteria; details: Cutibacterium acnes, ATCC11828
[20] = test system: Bacteroides fragillis (GAI 0675); test: as above
[21] = test system: Bacteroides thetaiotaomicron (GAI 0659); test: as above
[22] = test system: Ofloxacin-resistant Staphylococcus aureus; test: In vitro anti-bacterial activity (MIC90), ophthalmologic clinical bacteria isolates
[23] = test system: Corynebacterium species; test: as above; details: Gram-positive
[24] = test system: Moraxella species; test: as above; details: Gram-negative
[25] = test system: Peptostreptococcus magnum (GAI 0664); test: In vitro anti-bacterial activity (MIC90), anaerobic reference bacteria
[26] = test system: Haemophilus influenzae; test: In vitro anti-bacterial activity (MIC90), ophthalmologic clinical bacteria isolates; details: Gram-negative
[27] = test system: Gentamycin-resistant Pseudomonas aeruginosa; test: as above
[28] = test system: Bacillis subtilis (ATCC 6633); test: In vitro anti-bacterial activity (MIC90), Gram-positive reference strains
Description: as §1, with “μg/ml). Anti-bacterial activity of the compound having Formula III was tested against several Gram-positive reference bacteria strains and compared to the anti-bacterial activity of three commercially available antibiotics (nadifloxacin, ofloxacin, and sparfloxacin).” for “μg/ml).”

[29] = test system: Streptococcus pneumoniae (IID 553); test: as above; details: IID553
Description: as §1, with “μg/ml). Anti-bacterial activity of the compound having Formula III was tested against several Gram-positive reference bacteria strains and compared to the anti-bacterial activity of three commercially available antibiotics (nadifloxacin, ofloxacin, and sparfloxacin).” for “μg/ml).”

[30] = test system: Staphylococcus aureus (FDA 209P); test: as above; details: FDA209P
Description: as §1, with “μg/ml). Anti-bacterial activity of the compound having Formula III was tested against several Gram-positive reference bacteria strains and compared to the anti-bacterial activity of three commercially available antibiotics (nadifloxacin, ofloxacin, and sparfloxacin).” for “μg/ml).”

[31] = test system: Sarcina lutea (ATCC 9341); test: as above; details: Micrococcus luteus, ATCC9341
Description: as §1, with “μg/ml). Anti-bacterial activity of the compound having Formula III was tested against several Gram-positive reference bacteria strains and compared to the anti-bacterial activity of three commercially available antibiotics (nadifloxacin, ofloxacin, and sparfloxacin).” for “μg/ml).”

[32] = test system: Staphylococcus epidermidis (ATCC 12228); test: as above; details: ATCC12228
Description: as §1, with “μg/ml). Anti-bacterial activity of the compound having Formula III was tested against several Gram-positive reference bacteria strains and compared to the anti-bacterial activity of three commercially available antibiotics (nadifloxacin, ofloxacin, and sparfloxacin).” for “μg/ml).”

[33] = test system: Staphylococcus aureus (ATCC 25933); test: as above; details: ATCC25933
Description: as §1, with “μg/ml). Anti-bacterial activity of the compound having Formula III was tested against several Gram-positive reference bacteria strains and compared to the anti-bacterial activity of three commercially available antibiotics (nadifloxacin, ofloxacin, and sparfloxacin).” for “μg/ml).”

[34] = test system: Streptococcus pyogenes (IID 698); test: as above; details: IID698
Description: as §1, with “μg/ml). Anti-bacterial activity of the compound having Formula III was tested against several Gram-positive reference bacteria strains and compared to the anti-bacterial activity of three commercially available antibiotics (nadifloxacin, ofloxacin, and sparfloxacin).” for “μg/ml).”

[35] = test system: Streptococcus pyogenes (Cook); test: as above
Description: as §1, with “μg/ml). Anti-bacterial activity of the compound having Formula III was tested against several Gram-positive reference bacteria strains and compared to the anti-bacterial activity of three commercially available antibiotics (nadifloxacin, ofloxacin, and sparfloxacin).” for “μg/ml).”

[36] = test system: Streptococcus faecalis (ATCC 29212); test: as above; details: Enterococcus faecalis, ATCC29212
Description: as §1, with “μg/ml). Anti-bacterial activity of the compound having Formula III was tested against several Gram-positive reference bacteria strains and compared to the anti-bacterial activity of three commercially available antibiotics (nadifloxacin, ofloxacin, and sparfloxacin).” for “μg/ml).”

[37] = test system: Streptococcus pneniae (IID 554); test: as above; details: IID554
Description: as §1, with “μg/ml). Anti-bacterial activity of the compound having Formula III was tested against several Gram-positive reference bacteria strains and compared to the anti-bacterial activity of three commercially available antibiotics (nadifloxacin, ofloxacin, and sparfloxacin).” for “μg/ml).”

[38] = test system: Staphylococcus aureus (Smith); test: as above
Description: as §1, with “μg/ml). Anti-bacterial activity of the compound having Formula III was tested against several Gram-positive reference bacteria strains and compared to the anti-bacterial activity of three commercially available antibiotics (nadifloxacin, ofloxacin, and sparfloxacin).” for “μg/ml).”

[39] = test system: Streptococcus faecalis (IFO 12964); test: as above; details: Enterococcus faecalis, IFO12964
Description: as §1, with “μg/ml). Anti-bacterial activity of the compound having Formula III was tested against several Gram-positive reference bacteria strains and compared to the anti-bacterial activity of three commercially available antibiotics (nadifloxacin, ofloxacin, and sparfloxacin).” for “μg/ml).”

[40] = test system: Gentamycin-resistant Staphylococcus aureus; test: In vitro anti-bacterial activity (MIC90), ophthalmologic clinical bacteria isolates
[41] = test system: Clostridium perfringens (KZ 210); test: microbe, parasite or virus in culture
[42] = test system: Bacteroides vulgatus (GAI 0673); test: In vitro anti-bacterial activity (MIC90), anaerobic reference bacteria; details: Phocaeicola vulgatus
[43] = test system: Staphylococcus aureus; test: In vitro anti-bacterial activity (MIC90), ophthalmologic clinical bacteria isolates; details: Gram-positive

NC1CCCCN(c2c(F)cc3c(=O)c(C(=O)O)cn(C4CC4)c3c2Cl)C1 (centres unmarked) [Compound Having Formula III]
MIC90 [1]: 0.2 µg/mL | MIC90 [2]: 4 µg/mL | MIC90 [3]: 0.13 µg/mL | MIC90 [4]: 0.05 mμg/mL | MIC90 [5]: 0.2 µg/mL | MIC90 [6]: 0.1 µg/mL | MIC90 [7]: 0.05 µg/mL | MIC90 [8]: 0.2 µg/mL | MIC90 [9]: 0.012 µg/mL | MIC90 [10]: 0.05 µg/mL | MIC90 [11]: 0.1 µg/mL | MIC90 [12]: 0.012 µg/mL | MIC90 [13]: 0.006 µg/mL | MIC90 [14]: 0.1 µg/mL | MIC90 [15]: 0.13 µg/mL | MIC90 [16]: 0.2 µg/mL | MIC90 [17]: 0.5 µg/mL | MIC90 [18]: 0.25 µg/mL | MIC90 [19]: 0.39 µg/mL | MIC90 [20]: 0.1 µg/mL | MIC90 ([21]; anaerobic, Bacteroides thetaiotaomicron (GAI 0659), read-out: MIC90): 0.2 µg/mL | MIC90 [22]: 8 µg/mL | MIC90 [23]: 2 µg/mL | MIC90 [24]: 0.13 µg/mL | MIC90 [25]: 0.05 µg/mL | MIC90 [26]: ≤ 0.06 µg/mL | MIC90 [27]: 32 µg/mL | MIC90 [28]: 0.012 µg/mL | MIC90 [29]: 0.1 µg/mL | MIC90 [30]: 0.012 µg/mL | MIC90 [31]: 0.1 µg/mL | MIC90 [32]: 0.05 µg/mL | MIC90 [33]: 0.05 µg/mL | MIC90 [34]: 0.1 µg/mL | MIC90 [35]: 0.1 µg/mL | MIC90 [36]: 0.2 µg/mL | MIC90 [37]: 0.2 µg/mL | MIC90 [38]: 0.006 µg/mL | MIC90 [39]: 0.1 µg/mL | MIC90 [40]: 4 µg/mL | MIC90 [41]: 0.2 µg/mL | MIC90 [42]: 0.1 µg/mL | MIC90 [43]: 1 µg/mL

CC1CCc2c(N3CCC(O)CC3)c(F)cc3c(=O)c(C(=O)O)cn1c23 (centres unmarked) [Nadifloxacin]
MIC90 [1]: 0.39 µg/mL (≈ 1.08 µM) | MIC90 [4]: 0.2 mμg/mL | MIC90 [5]: 0.2 µg/mL (≈ 0.555 µM) | MIC90 [6]: 0.78 µg/mL (≈ 2.16 µM) | MIC90 [7]: 0.1 µg/mL (≈ 0.277 µM) | MIC90 [8]: 0.78 µg/mL (≈ 2.16 µM) | MIC90 [9]: 0.024 µg/mL (≈ 0.0666 µM) | MIC90 [10]: 0.05 µg/mL (≈ 0.139 µM) | MIC90 [11]: 0.39 µg/mL (≈ 1.08 µM) | MIC90 [12]: 0.006 µg/mL (≈ 0.0166 µM) | MIC90 [13]: 0.024 µg/mL (≈ 0.0666 µM) | MIC90 [14]: 0.78 µg/mL (≈ 2.16 µM) | MIC90 [16]: 0.2 µg/mL (≈ 0.555 µM) | MIC90 [19]: 0.78 µg/mL (≈ 2.16 µM) | MIC90 [20]: 1.56 µg/mL (≈ 4.33 µM) | MIC90 ([21]; Bacteroides thetaiotaomicron): 1.56 µg/mL (≈ 4.33 µM) | MIC90 [25]: 0.2 µg/mL (≈ 0.555 µM) | MIC90 [28]: 0.006 µg/mL (≈ 0.0166 µM) | MIC90 [29]: 0.78 µg/mL (≈ 2.16 µM) | MIC90 [30]: 0.024 µg/mL (≈ 0.0666 µM) | MIC90 [31]: 0.39 µg/mL (≈ 1.08 µM) | MIC90 [32]: 0.1 µg/mL (≈ 0.277 µM) | MIC90 [33]: 0.05 µg/mL (≈ 0.139 µM) | MIC90 [34]: 0.1 µg/mL (≈ 0.277 µM) | MIC90 [35]: 0.78 µg/mL (≈ 2.16 µM) | MIC90 [36]: 0.78 µg/mL (≈ 2.16 µM) | MIC90 [37]: 0.78 µg/mL (≈ 2.16 µM) | MIC90 [38]: 0.024 µg/mL (≈ 0.0666 µM) | MIC90 [39]: 0.78 µg/mL (≈ 2.16 µM) | MIC90 [41]: 0.2 µg/mL (≈ 0.555 µM) | MIC90 [42]: 0.78 µg/mL (≈ 2.16 µM)
